This is an account of results in patent US12133922B2, “Abuse resistant capsule” (R.P. Scherer Technologies, LLC, priority 2013, dated 2024).

Structures can show the parent of a compound that is named as a salt.

The nature of this data set: aqueous, methanol and acidic extraction of capsule fill, assay by HPLC. It counts as physicochemical. As for the experimental part:
In order to ascertain the resistance to aqueous and acidic extraction, the fill mass of 10 capsules was mixed with different amounts of purified water (5 mL/caps. and 10 mL/caps.) and extracted for 1, 3 or 5 days. Further, the fill mass of 10 capsules was mixed with 20 mL of methanol and was extracted for 3 days.
The fill mass of 10 capsules of Formulation A or Formulation B was mixed with 20 mL of 0.1 N hydrochloric acid and extracted for one day. Comparison solutions of Pseudoephedrine HCl (labeled as API in the table below) were prepared. After an extraction of the formulation/solvent mixture, the mixtures were centrifugated and the assay of pseudoephedrine HCl was analyzed by HPLC. Even after centrifugation the solutions were turbid. The results were normalized to a capsule containing 1164.8 mg of pseudoephedrine HCl.

As to `CN[C@@H](C)[C@@H](O)c1ccccc1` [API, Pseudoephedrine HCl], the “Calculated Mass of recoverable Pseudoephedrine HCl” value is, setting by setting: (comparison solution, 1 day, 50 mL water) 1026.0 mg; (comparison solution, 3 days, 50 mL water) 1243.7 mg; (comparison solution, 5 days, 50 mL water) 1227.7 mg; (extraction 1 day, 20 mL HCl 0.1 mol/L with neutralisation) 1197.3 mg; (extraction 1 day, 20 mL HCl 0.1 mol/L without neutralisation) 1054.7 mg; (extraction 3 days, 20 mL methanol) 1165.6 mg.
